Data on 12 compounds can be found in patent US20240116985A1, “STAPLED PEPTIDES AND METHODS THEREOF” (priority 2020, published 2024).

For assay [1], the target named is T1, beta-catenin/TCF4 engagement (Homo sapiens, UniProt P35222).
T1 construct: expressed in transfected cells; host or cells: HEK293
T1 sequence (P35222 1-781): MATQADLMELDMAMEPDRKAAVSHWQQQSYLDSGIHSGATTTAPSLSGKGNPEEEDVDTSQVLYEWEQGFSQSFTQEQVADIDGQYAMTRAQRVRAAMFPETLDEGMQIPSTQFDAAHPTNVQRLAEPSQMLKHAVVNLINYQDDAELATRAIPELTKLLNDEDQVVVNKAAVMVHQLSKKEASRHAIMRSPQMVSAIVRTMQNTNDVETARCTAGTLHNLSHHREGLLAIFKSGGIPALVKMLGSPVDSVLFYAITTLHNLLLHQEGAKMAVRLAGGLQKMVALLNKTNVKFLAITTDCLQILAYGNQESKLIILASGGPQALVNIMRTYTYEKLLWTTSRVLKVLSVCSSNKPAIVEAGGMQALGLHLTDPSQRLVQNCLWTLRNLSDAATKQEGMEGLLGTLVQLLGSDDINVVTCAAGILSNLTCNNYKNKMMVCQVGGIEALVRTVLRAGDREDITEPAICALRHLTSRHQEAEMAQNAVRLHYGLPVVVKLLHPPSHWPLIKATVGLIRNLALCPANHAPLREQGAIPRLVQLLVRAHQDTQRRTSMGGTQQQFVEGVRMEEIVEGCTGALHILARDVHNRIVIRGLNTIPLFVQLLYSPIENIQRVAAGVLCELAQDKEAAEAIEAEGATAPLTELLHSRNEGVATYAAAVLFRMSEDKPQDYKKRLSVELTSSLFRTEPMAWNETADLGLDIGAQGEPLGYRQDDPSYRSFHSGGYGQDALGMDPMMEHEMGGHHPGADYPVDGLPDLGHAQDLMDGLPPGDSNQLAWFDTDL
As to the kind of experiment: Nano-BRET target engagement assay (B-cat-Halo & TCF4-Luc in HEK293 cells). The format is cell-based. As to conditions: absolute IC50; read-out: NanoBRET Abs IC50.

The target of assay [2] is T2, full-length beta-Catenin (Uniprot ID P35222) (Homo sapiens, UniProt P35222).
T2 construct: 10 nM full-length beta-Catenin (Uniprot ID P35222)
T2 sequence (P35222 1-781): T1 sequence (P35222 1-781)
As to the kind of experiment: Fluorescence polarization IC50 (beta-catenin / 5FAM-TCF4 10-53 competition). Conditions: fluorescence polarization; read-out: beta-Catenin FP IC50. It is filed as binding.

For `CC(=O)N1CCC[C@]12CC=CCCCC1(CCCC=CCCCOC(=O)N3CC[C@@](C(=O)N[C@@H](Cc4ccccc4C(F)(F)F)C(=O)N[C@@H](Cc4csc5ccccc45)C(=O)N[C@@H](CCC(=O)N4CCOCC4)C(N)=O)(C3)NC(=O)[C@H](CCC(=O)N(C)C)NC(=O)[C@H](Cc3ccccc3)NC(=O)[C@H](C)NC(=O)[C@H](C)NC(=O)[C@H](Cc3cccc(C(=O)O)c3)NC(=O)[C@H](CC(=O)O)NC1=O)NC(=O)[C@H](CC(C)(C)C)NC(=O)[C@H](CC(=O)O)NC2=O` (stereo partly drawn) [I-2544, Ac-PL3-Asp-Npg-B5-Asp-3COOHF-Ala-Ala-Phe-Me2Gln-PyrS2-2F3MeF-BztA-MorphGln-NH2], the IC50 in assay [1] came out at 4.1 µM; in assay [2] it was 0.011 µM.

With `CC(=O)N1CCC[C@]12CC=CCCCC1(CCCC=CCCCOC(=O)N3CC[C@@](C(=O)N[C@@H](Cc4ccccc4C(F)(F)F)C(=O)N[C@@H](Cc4csc5ccccc45)C(=O)N[C@@H](CCC(=O)N4CCOCC4)C(N)=O)(C3)NC(=O)[C@H](CCC(=O)N(C)C)NC(=O)[C@H](Cc3ccccc3)NC(=O)[C@H](C)NC(=O)[C@H](C)NC(=O)[C@H](Cc3cccc(C(=O)O)c3)NC(=O)[C@H](CC(=O)O)NC1=O)NC(=O)[C@H](CC(C)(C)C)NC(=O)[C@H](CC(=O)O)NC2=O` (stereo partly drawn) [I-2545, Ac-PL3-Asp-Npg-B5-Asp-3COOHF-Ala-Ala-Phe-Me2Gln-PyrS2-2F3MeF-BztA-MorphGln-NH2], the IC50 in assay [1] is 4 µM; in assay [2], 0.016 µM.

With `CC(=O)N1CCC[C@]12CC=CCCCC1(CCCC=CCCCOC(=O)N3CC[C@@](C(=O)N[C@@H](Cc4ccccc4C(F)(F)F)C(=O)N[C@@H](Cc4csc5ccccc45)C(=O)N[C@@H](CCC(=O)N4CCOCC4)C(N)=O)(C3)NC(=O)[C@H](CCC(=O)N3CCOCC3)NC(=O)[C@H](Cc3ccccc3)NC(=O)[C@H](C)NC(=O)[C@H](C)NC(=O)[C@H](Cc3cccc(C(=O)O)c3)NC(=O)[C@H](CC(=O)O)NC1=O)NC(=O)[C@H](CC(C)(C)C)NC(=O)[C@H](CC(=O)O)NC2=O` (stereo partly drawn) [I-2546, Ac-PL3-Asp-Npg-B5-Asp-3COOHF-Ala-Ala-Phe-MorphGln-PyrS2-2F3MeF-BztA-MorphGln-NH2], the figures for the IC50 in assay [1] and in assay [2] were 3.5 µM and 0.013 µM, respectively.

Regarding `CC(=O)N1CCC[C@]12CC=CCCCC1(CCCC=CCCCOC(=O)N3CC[C@@](C(=O)N[C@@H](Cc4ccccc4C(F)(F)F)C(=O)N[C@@H](Cc4csc5ccccc45)C(=O)N[C@@H](CCC(=O)N4CCOCC4)C(N)=O)(C3)NC(=O)[C@H](CCC(=O)N3CCOCC3)NC(=O)[C@H](Cc3ccccc3)NC(=O)[C@H](C)NC(=O)[C@H](C)NC(=O)[C@H](Cc3cccc(C(=O)O)c3)NC(=O)[C@H](CC(=O)O)NC1=O)NC(=O)[C@H](CC(C)(C)C)NC(=O)[C@H](CC(=O)O)NC2=O` (stereo partly drawn) [I-2547, Ac-PL3-Asp-Npg-B5-Asp-3COOHF-Ala-Ala-Phe-MorphGln-PyrS2-2F3MeF-BztA-MorphGln-NH2], the values for the IC50 in assay [1] and in assay [2] were 3.5 µM and 0.013 µM, respectively.

`CC(=O)NCCCC[C@@H]1NC(=O)[C@H](Cc2ccccc2)NC(=O)[C@H](C)NC(=O)[C@H](C)NC(=O)[C@H](Cc2cccc(C(=O)O)c2)NC(=O)[C@H](CC(=O)O)NC(=O)C2(CCCC=CCCCOC(=O)N3CC[C@@](C(=O)N[C@@H](Cc4ccccc4C(F)(F)F)C(=O)N[C@@H](Cc4csc5ccccc45)C(=O)N[C@@H](CCC(=O)N4CCOCC4)C(N)=O)(C3)NC1=O)CCCC=CC[C@]1(CCCN1C(C)=O)C(=O)N[C@@H](CC(=O)O)C(=O)N[C@@H](CC(C)(C)C)C(=O)N2` (stereo partly drawn) [I-2548, Ac-PL3-Asp-Npg-B5-Asp-3COOHF-Ala-Ala-Phe-AcLys-PyrS2-2F3MeF-BztA-MorphGln-NH2]: the IC50 was 3.6 µM in assay [1] and 0.011 µM in assay [2].

As for `CC(=O)NCCCC[C@@H]1NC(=O)[C@H](Cc2ccccc2)NC(=O)[C@H](C)NC(=O)[C@H](C)NC(=O)[C@H](Cc2cccc(C(=O)O)c2)NC(=O)[C@H](CC(=O)O)NC(=O)C2(CCCC=CCCCOC(=O)N3CC[C@@](C(=O)N[C@@H](Cc4ccccc4C(F)(F)F)C(=O)N[C@@H](Cc4csc5ccccc45)C(=O)N[C@@H](CCC(=O)N4CCOCC4)C(N)=O)(C3)NC1=O)CCCC=CC[C@]1(CCCN1C(C)=O)C(=O)N[C@@H](CC(=O)O)C(=O)N[C@@H](CC(C)(C)C)C(=O)N2` (stereo partly drawn) [I-2549, Ac-PL3-Asp-Npg-B5-Asp-3COOHF-Ala-Ala-Phe-AcLys-PyrS2-2F3MeF-BztA-MorphGln-NH2], the IC50 in assay [1] turned out to be 2.5 µM; in assay [2], 0.013 µM.

`CCCC[C@@H]1NC(=O)[C@H](Cc2ccccc2)NC(=O)[C@H](C)NC(=O)C(C)(C)NC(=O)[C@H](Cc2cccc(C(=O)O)c2)NC(=O)[C@H](CC(=O)O)NC(=O)C2(CCCC=CCCCOC(=O)N3CC[C@@](C(=O)N[C@@H](Cc4ccsc4)C(=O)N[C@@H](Cc4csc5ccccc45)C(=O)N[C@@H](CCC(=O)N(C)C)C(N)=O)(C3)NC1=O)CCCC=CC[C@]1(CCCN1C(C)=O)C(=O)N[C@@H](CC(=O)O)C(=O)N[C@@H](CC(C)(C)C)C(=O)N2` (stereo partly drawn) [I-2551, Ac-PL3-Asp-Npg-B5-Asp-3COOHF-Aib-Ala-Phe-nLeu-PyrS2-3Thi-BztA-[NMe2]GlnR-NH2]: the IC50 came out at 9.8 µM in assay [1] and 0.008 µM in assay [2].

As for `CCCC[C@@H]1NC(=O)[C@H](Cc2ccccc2)NC(=O)[C@H](C)NC(=O)C(C)(C)NC(=O)[C@H](Cc2cccc(C(=O)O)c2)NC(=O)[C@H](CC(=O)O)NC(=O)C2(CCCC=CCCCOC(=O)N3CC[C@@](C(=O)N[C@@H](Cc4ccsc4)C(=O)N[C@@H](Cc4csc5ccccc45)C(=O)N[C@@H](CCC(=O)NCC)C(N)=O)(C3)NC1=O)CCCC=CC[C@]1(CCCN1C(C)=O)C(=O)N[C@@H](CC(=O)O)C(=O)N[C@@H](CC(C)(C)C)C(=O)N2` (stereo partly drawn) [I-2552, Ac-PL3-Asp-Npg-B5-Asp-3COOHF-Aib-Ala-Phe-nLeu-PyrS2-3Thi-BztA-NHEt]GlnR-NH2], the values for the IC50 in assay [1] and in assay [2] were 10.4 µM and 0.012 µM, respectively.

`CCCC[C@@H]1NC(=O)[C@H](Cc2ccccc2)NC(=O)[C@H](C)NC(=O)C(C)(C)NC(=O)[C@H](Cc2cccc(C(=O)O)c2)NC(=O)[C@H](CC(=O)O)NC(=O)C2(CCCC=CCCCOC(=O)N3CC[C@@](C(=O)N[C@@H](Cc4ccsc4)C(=O)N[C@@H](Cc4csc5ccccc45)C(=O)N[C@@H](CCC(=O)N4CCOCC4)C(N)=O)(C3)NC1=O)CCCC=CC[C@]1(CCCN1C(C)=O)C(=O)N[C@@H](CC(=O)O)C(=O)N[C@@H](CC(C)(C)C)C(=O)N2` (stereo partly drawn) [I-2553, Ac-PL3-Asp-Npg-B5-Asp-3COOHF-Aib-Ala-Phe-nLeu-PyrS2-3Thi-BztA-[Morph]GlnR-NH2]: the results for the IC50 in assay [1] and in assay [2] were 8.2 µM and 0.01 µM, respectively.

Regarding `CCCC[C@@H]1NC(=O)[C@H](Cc2ccccc2)NC(=O)[C@H](C)NC(=O)C(C)(C)NC(=O)[C@H](Cc2cccc(C(=O)O)c2)NC(=O)[C@H](CC(=O)O)NC(=O)C2(CCCC=CCCCOC(=O)N3CC[C@@](C(=O)N[C@@H](Cc4ccsc4)C(=O)N[C@@H](Cc4csc5ccccc45)C(=O)N[C@@H](CCC(=O)N(CCOC)CCOC)C(N)=O)(C3)NC1=O)CCCC=CC[C@]1(CCCN1C(C)=O)C(=O)N[C@@H](CC(=O)O)C(=O)N[C@@H](CC(C)(C)C)C(=O)N2` (stereo partly drawn) [I-2554, Ac-PL3-Asp-Npg-B5-Asp-3COOHF-Aib-Ala-Phe-nLeu-PyrS2-3Thi-BztA-[bismethoxyethylamine]GlnR-NH2], the results for the IC50 in assay [1] and in assay [2] were 3.3 µM and 0.008 µM, respectively.

Consider `CCCC[C@@H]1NC(=O)[C@H](Cc2ccccc2)NC(=O)[C@H](C)NC(=O)C(C)(C)NC(=O)[C@H](Cc2cccc(C(=O)O)c2)NC(=O)[C@H](CC(=O)O)NC(=O)C2(CCCC=CCCCOC(=O)N3CC[C@@](C(=O)N[C@@H](Cc4ccsc4)C(=O)N[C@@H](Cc4csc5ccccc45)C(=O)N[C@@H](CCC(=O)N4CCN(C(C)=O)CC4)C(N)=O)(C3)NC1=O)CCCC=CC[C@]1(CCCN1C(C)=O)C(=O)N[C@@H](CC(=O)O)C(=O)N[C@@H](CC(C)(C)C)C(=O)N2` (stereo partly drawn) [I-2556, Ac-PL3-Asp-Npg-B5-Asp-3COOHF-Aib-Ala-Phe-nLeu-PyrS2-3Thi-BztA-[AcPpz]GlnR-NH2], for which the IC50 in assay [1] stood at 7 µM; in assay [2] it was 0.006 µM.

For `CCCC[C@@H]1NC(=O)[C@H](Cc2ccccc2)NC(=O)[C@H](C)NC(=O)C(C)(C)NC(=O)[C@H](Cc2cccc(C(=O)O)c2)NC(=O)[C@H](CC(=O)O)NC(=O)C2(CCCC=CCCCOC(=O)N3CC[C@@](C(=O)N[C@@H](Cc4ccsc4)C(=O)N[C@@H](Cc4csc5ccccc45)C(=O)N[C@@H](CCC(=O)N4CCC(C(F)(F)F)CC4)C(N)=O)(C3)NC1=O)CCCC=CC[C@]1(CCCN1C(C)=O)C(=O)N[C@@H](CC(=O)O)C(=O)N[C@@H](CC(C)(C)C)C(=O)N2` (stereo partly drawn) [I-2557, Ac-PL3-Asp-Npg-B5-Asp-3COOHF-Aib-Ala-Phe-nLeu-PyrS2-3Thi-BztA-4F3CPip]GlnR-NH2], the IC50 in assay [1] came to 19.6 µM; in assay [2], 0.029 µM.
